As usually defined, the solubility is the concentration that dissolves in the medium under given conditions. A higher solubility goes with much dissolved substance.

The nature of the data set: Water-solubility test. The data set is classed as physicochemical. The note with it: 22° C.; for solubility at 24 h: water, pH 5.5, water, thermodynamic from solid, ultrasonic mixing for 24 hours, pH5.5, average of two experiments.

In brackets after ≈: the same amount, converted by molar mass.

Turning to `Cc1cccc(NC(=O)Nc2ccc(-c3cncc4[nH]nc(N)c34)c3ccccc23)c1` [Compound (IV)], the concentration in solution (solubility at 24 h) was 0.0925 µg/mL (≈ 0.226 µM).

For the compound `Cc1ccc(F)c(NC(=O)Nc2ccc(-c3ccc(OCCCN4CCCC4)c4[nH]nc(N)c34)c3ccccc23)c1` [Compound (V)], the solubility at 24 h amounted to 0.64 µg/mL (≈ 1.16 µM). Also, the “Water solubility relative to compound (IV)” value (pH5.5, ratio versus compound (IV)) is on record as 6.9 times.

These data come from patent US9469639B2, “Naphthylurea derivatives and medical applications thereof” (RADIANT PHARMA & TECH. CO., LTD., priority 2013, dated 2016).
